Where two headings read alike, the source gives them in different places.

Experiment [1] relates to MRSA. Put plainly: Planktonic antibacterial broth microdilution assay. To be noted: Staphylococcus aureus. In general terms: Broth dilution looks for growth in wells or tubes with falling amounts of substance.
The target of experiment [2] is T1, Bacillus subtilis FtsZ (Bacillus subtilis, UniProt P17865). Put plainly: 90°-angle light scattering assay of FtsZ polymerization. Type of experiment: biochemical. To be noted: compound 40 μM; for Maximal Light Scattering: readout of extent of polymerization, no compound: 3.40; for Time to Reach Half-Maximal Light Scattering: readout of rate of polymerization, no compound: 91.6. The method, then:
B[c]P inhibition of FtsZ polymerization can be tested using a 90°-angle light scattering assay for monitoring drug impact on FtsZ polymerization. This assay is premised on the increased light scattering properties of polymeric FtsZ relative to the monomeric form of the protein. To this end, the light scattering at 600 nm of 5 μM FtsZ is continuously monitored under polymerization conditions in the absence or presence of a B[c]P compound at concentrations ranging from 40 to 80 μM.
Polymerization is initiated by addition of 0.5 mM GTP. The rate and extent of FtsZ polymerization can be quantified by analyzing the light scattering profiles to derive maximal light scattering values (which provide a readout of the extent of polymerization) as well as the times required to reach half-maximal light scattering values (which provide a readout of the rate of polymerization).

Experiment [3] deals with Staphylococcus aureus. Put plainly: Planktonic antibacterial broth microdilution assay. Type of experiment: cell-based. Particulars: 24 hours continuous drug exposure.
In experiment [4] the test system is Mycobacterium tuberculosis. As to the kind of experiment: Planktonic antibacterial broth microdilution assay. To be noted: 24 hours continuous drug exposure. Type of experiment: cell-based.
Experiment [5] concerns Enterococcus faecalis. Put plainly: Planktonic antibacterial broth microdilution assay. Particulars: 24 hours continuous drug exposure. Type of experiment: cell-based.
The subject of experiment [6] is Bacillus subtilis. As to the kind of experiment: Planktonic antibacterial broth microdilution assay. Type of experiment: cell-based. Particulars: 24 hours continuous drug exposure.
In experiment [7] the target is T1, Bacillus subtilis FtsZ. As to the kind of experiment: Fluorescence-based competition binding assay (displacement of BODIPY-GTPγS from FtsZ). Particulars: FIG. 8; reduction reflects binding to FtsZ and release of BODIPY-GTPγS. An excerpt: B[c]P binding to FtsZ can be tested using a fluorescence-based competition binding assay using purified FtsZ and a commercially available GTPγS analog where the nucleotide is covalently conjugated via its sulfur atom to the fluorescent dye BODIPY (DIPYrromethene BOron difluoride). Upon binding to FtsZ, BODIPY-GTPγS undergoes a dramatic increase in fluorescence emission intensity (I) at 510 nm. This binding-induced change in BODIPY-GTPγS fluorescence provides the dissociation constant (Kd-GTP) of the nucleotide for the protein through analysis of fluorescence titration profiles with the following formalism, which is predicated on a one-to-one binding stoichiometry:
[formula] I0 and I are the fluorescence emission intensities of BODIPY-GTPγS in the absence and presence of a given FtsZ concentration, respectively, I∞ is the fluorescence emission intensity of BODIPY-GTPγS in the presence of an infinite FtsZ concentration, and [GTP]tot and [FtsZ]tot are the total concentrations of BODIPY-GTPγS and FtsZ, respectively. […]
I0 and I are the fluorescence emission intensities of the FtsZ-BODIPY-GTPγS complex in the absence and presence of a given compound concentration, respectively, I∞ is the fluorescence emission intensity of the FtsZ-BODIPY-GTPγS complex in the presence of infinite compound concentration, [Compd]tot is the total compound concentration, and p is the Hill slope. […]

T1 sequence (P17865 whole entry): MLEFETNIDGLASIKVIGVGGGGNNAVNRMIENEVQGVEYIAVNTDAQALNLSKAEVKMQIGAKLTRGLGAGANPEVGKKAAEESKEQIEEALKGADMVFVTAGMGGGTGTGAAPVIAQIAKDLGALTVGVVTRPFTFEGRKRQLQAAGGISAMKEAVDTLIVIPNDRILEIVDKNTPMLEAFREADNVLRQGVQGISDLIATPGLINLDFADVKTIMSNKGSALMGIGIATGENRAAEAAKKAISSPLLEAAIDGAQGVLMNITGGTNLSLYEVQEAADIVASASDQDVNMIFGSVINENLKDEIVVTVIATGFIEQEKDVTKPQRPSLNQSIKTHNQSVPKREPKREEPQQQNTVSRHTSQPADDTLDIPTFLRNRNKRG

A word on the MIC: it is the smallest concentration in the dilution series that meets the test's criterion for growth inhibition. With `COc1cc2c(-c3ccc(-c4ccccc4)cc3)cc3c4ccc5c(c4c[n+](C)c3c2cc1OC)OCO5` [Example 13], the MIC in experiment [1] (read-out: MIC vs. MRSA) was under 16 µg/mL. Regarding `COc1ccc2c(c1OC)CN(C)c1c-2ccc2c(C3CC3)c(OC)c(OC)cc12` [Example 21], the minimum inhibitory concentration (MIC) in experiment [1] (read-out: MIC vs. MRSA) was under 16 µg/mL.

Turning to `COc1cc2c(-c3ccccc3)cc3c4ccc(OC)c(OC)c4c[n+](C)c3c2cc1OC` [Example 14], the minimum inhibitory concentration (MIC) in experiment [1] (read-out: MIC vs. MRSA) was under 16 µg/mL. As to `COc1ccc2c(c[n+](C)c3c4cc5c(cc4ccc23)OCO5)c1OC` [Chelerythrine], in experiment [2], the “Maximal Light Scattering” value amounted to 2.83 a.u. The “Time to Reach Half-Maximal Light Scattering” value in experiment [2] was 205.3 s. Moreover, the minimal inhibitory concentration (MIC) amounted to 8 µg/mL in experiment [3]; 8 µg/mL in experiment [4]; 32 µg/mL in experiment [5]; 4 µg/mL in experiment [6]; 16 µg/mL in experiment [1] (24 h, read-out: MRSA MIC). For the molecule `COc1cc2c(ccc3c4ccc(OC)c(OC)c4c[n+](C)c23)c(-c2ccc(-c3ccccc3)cc2)c1OC` [Example 7], the minimum inhibitory concentration (MIC) in experiment [1] (read-out: MIC vs. MRSA) is under 16 µg/mL. Still for that read-out and setting: next, `COc1cc2ccc3c4ccc(OC)c(OC)c4c[n+](C)c3c2cc1OC` [Comparative Example 2, reference compound]: 64 µg/mL.

Take `COc1cc2c(ccc3c4ccc(OC)c(OC)c4c[n+](C)c23)c(-c2ccc(N(C)C)cc2)c1OC` [Example 16]: in experiment [1] (read-out: MIC vs. MRSA), the MIC is under 16 µg/mL. With `COc1ccc(-c2c(OC)c(OC)cc3c2ccc2c4ccc5c(c4c[n+](C)c32)OCO5)cc1` [Example 6], in experiment [1] (read-out: MIC vs. MRSA), the minimum inhibitory concentration (MIC) is under 16 µg/mL. Still for that read-out and setting: the figure for `COc1cc2c(ccc3c4ccc5c(c4c[n+](C)c23)OCO5)c(Cc2ccccc2)c1OC` [Example 5] is under 16 µg/mL; for `COc1cc2c(-c3ccc(-c4ccccc4)cc3)cc3c4ccc(OC)c(OC)c4c[n+](C)c3c2cc1OC` [Example 23] it is under 16 µg/mL; for `COc1cc2c(ccc3c4ccc(OC)c(OC)c4c[n+](C)c23)c(-c2ccccc2)c1OC` [Example 12] it is under 16 µg/mL.

On to `COc1cc2c(ccc3c4ccc(OC)c(OC)c4c[n+](C)c23)c(-c2cccnc2)c1OC` [Example 22], for which the MIC in experiment [1] (read-out: MIC vs. MRSA) is under 16 µg/mL. With `COc1ccc2c(c1OC)C(OC)N(C)c1c-2ccc2c(-c3ccc(-c4ccccc4)cc3)c(OC)c(OC)cc12` (stereo not drawn) [Example 25], in experiment [1] (read-out: MIC vs. MRSA), the minimum inhibitory concentration (MIC) was under 16 µg/mL.

With `COc1ccc2c(c1OC)C(N)N(C)c1c-2ccc2c(-c3ccc(-c4ccccc4)cc3)c(OC)c(OC)cc12` (stereo not drawn) [Example 24], the MIC in experiment [1] (read-out: MIC vs. MRSA) was under 16 µg/mL. Same read-out and setting: the figure for `COc1cc2c(ccc3c4ccc5c(c4c[n+](C)c23)OCO5)c(-c2ccccc2)c1OC` [Example 4] is under 16 µg/mL; for `COc1cc2c(ccc3c4ccc(OC)c(OC)c4c[n+](C)c23)c(-c2ccoc2)c1OC` [Example 17] it is under 16 µg/mL; for `COc1cc2c(ccc3c4ccc(OC)c(OC)c4c[n+](C)c23)c(C2=CCCCC2)c1OC` [Example 9] it is under 16 µg/mL. Same read-out and setting: the figure for `COc1cc2c(ccc3c4ccc(OC)c(OC)c4c[n+](C)c23)c(C2CC2)c1OC` [Example 11] is under 16 µg/mL; for `COc1cc2c(ccc3c4ccc(OC)c(OC(C)C)c4c[n+](C)c23)c(-c2ccccc2)c1OC` [Example 8] it is under 16 µg/mL; for `COc1cc2c(ccc3c4ccc(OC)c(OC)c4c[n+](C)c23)c(-c2ccc(CCN3CCOCC3)cc2)c1OC` [Example 19] it is under 16 µg/mL.

For the molecule `COc1cc(-c2c(OC)c(OC)cc3c2ccc2c4ccc(OC)c(OC)c4c[n+](C)c32)cc(OC)c1OC` [Example 15], the MIC in experiment [1] (read-out: MIC vs. MRSA) is under 16 µg/mL.

On to `C[n+]1cc2c3c(ccc2c2ccc4cc5c(cc4c21)OCO5)OCO3` [Sanguinarine], for which the minimum inhibitory concentration (MIC) is 8 µg/mL in experiment [3]; 8 µg/mL in experiment [4]; 32 µg/mL in experiment [5]; 4 µg/mL in experiment [6]; 16 µg/mL in experiment [1] (24 h, read-out: MRSA MIC).

Consider `COc1ccc2c(c1OC)CN(C)c1c-2ccc2c(-c3ccc(-c4ccccc4)cc3)c(OC)c(OC)cc12` [Example 20], for which the minimal inhibitory concentration (MIC) in experiment [1] (read-out: MIC vs. MRSA) is under 16 µg/mL. The same measure, in the same setting: next, `COc1cc2ccc3c4ccc5c(c4c[n+](C)c3c2cc1OC)OCO5` [Comparative Example 1, reference compound]: 32 µg/mL.

In the case of `COc1cc2c(ccc3c4ccc(OC)c(OC)c4c[n+](C)c23)c(C2CCCCC2)c1OC` [Example 10], in experiment [1] (read-out: MIC vs. MRSA), the MIC is under 16 µg/mL.

`COc1cc2c(ccc3c4ccc5c(c4c[n+](C)c23)OCO5)c(-c2ccc(-c3ccccc3)cc2)c1OC` [Example 3, 8-Biphenyl-4-yl-9,10-dimethoxy-12-methyl-1,3-dioxa-12-azoniacyclopenta[a]chrysene chloride]: the “Maximal Light Scattering” value in experiment [2] is reported as 1.76 a.u. For the same molecule, the “Time to Reach Half-Maximal Light Scattering” value in experiment [2] is 600.5 s. In addition, the MIC in experiment [3] was 2 µg/mL; in experiment [4], 4 µg/mL; in experiment [5] it was 16 µg/mL; in experiment [6], 2 µg/mL; in experiment [1] (24 h, read-out: MRSA MIC), 8 µg/mL; in experiment [1] (read-out: MIC vs. MRSA), under 16 µg/mL. Moreover, the “fluorescence of FtsZ-bound BODIPY-GTPγS upon addition of compound” value in experiment [7] is recorded as “decreases”.

As to `COc1cc2c(ccc3c4ccc(OC)c(OC)c4c[n+](C)c23)c(-c2ccc(S(=O)(=O)N(C)C)cc2)c1OC` [Example 18], the MIC in experiment [1] (read-out: MIC vs. MRSA) was under 16 µg/mL.

Source of the values: patent US8741917B2, “Benzo [C] phenanthridines as antimicrobial agents” (Rutgers, The State University of New Jersey, priority 2009, dated 2014).
